Results as given in patent publication US20220348970A1, “METHODS AND COMPOSITIONS FOR 3-HYDROXYPROPIONATE PRODUCTION” (The Regents of the University of California, priority 2017, published 2022).

Key:
[1] = molecular target: T1, pyruvate decarboxylase from Gluconacetobacter diazotrophicus (4COK), SEQ ID NO: 1 (Gluconacetobacter diazotrophicus, UniProt A9H275); experiment: Steady-state kinetics of 4COK decarboxylase on pyruvate and oxaloacetate (ADH/NADPH coupled, 340 nm); type: biochemical; settings: pH 7.2, 21° C., 0.1 mM-5 mM substrate
T1 construct: likely strain PAl 5 (ATCC 49037 / DSM 5601)
T1 sequence (A9H275 1-558): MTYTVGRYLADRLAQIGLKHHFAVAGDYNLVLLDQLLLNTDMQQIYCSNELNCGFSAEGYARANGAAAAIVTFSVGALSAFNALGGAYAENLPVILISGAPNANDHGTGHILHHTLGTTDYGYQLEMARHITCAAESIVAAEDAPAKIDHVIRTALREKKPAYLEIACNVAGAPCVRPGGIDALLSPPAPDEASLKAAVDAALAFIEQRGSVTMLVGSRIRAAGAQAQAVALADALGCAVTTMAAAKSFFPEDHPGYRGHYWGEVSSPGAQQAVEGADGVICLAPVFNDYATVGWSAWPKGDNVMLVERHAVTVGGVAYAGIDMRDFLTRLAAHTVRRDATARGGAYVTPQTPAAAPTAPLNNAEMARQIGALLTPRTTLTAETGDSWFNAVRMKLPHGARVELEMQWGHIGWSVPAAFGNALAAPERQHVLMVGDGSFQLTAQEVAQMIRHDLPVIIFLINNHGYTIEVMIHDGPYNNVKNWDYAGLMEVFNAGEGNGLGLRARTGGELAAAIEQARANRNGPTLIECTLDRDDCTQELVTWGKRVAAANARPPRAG
Method: Overnight cultures of BLR cells suspended in a 2 mL volume were transformed with a pet29b+ plasmid (encoding polypeptides of interest with a C-terminal His-tag) and grown in Terrific Broth with 50 μg/ml kanamycin. Cultures were diluted 1:1.000 in 500 ml of Terrific Broth with 1 mM MgSO4, 1% glucose and 50 μg/ml antibiotic and then grown at 37° C. for 24 hours. Cultures were pelleted down at 4,700 RPM for 10 minutes and resuspended in auto-induction media (LB broth, 1 mM MgSO4, 0.1 mM TPP, 1×NPS and 1×5052) for induction at 18° C. for 20 hours. […] Protein concentrations were determined using a Synergy H1 spectrophotometer (Biotek) by measuring absorbance at 280 nm using calculated extinction coefficients.
All substrates were dissolved in MilliQ H2O and the pH was adjusted to 7.2 as necessary. Activity for oxaloacetate, pyruvate, and 2-ketoisovalerate was measured at a 1 mM substrate concentration. […] Absorbance readings were taken at one minute intervals at 340 nm at 21° C. for 60 minutes using the Synergy H1 spectrophotometer (Biotek). Kinetic parameters (ka and Ks1) were determined by fitting initial velocity versus substrate concentration data to the Michaelis-Menten equation. […]

[2] = molecular target: T2, OAADC A0A0D6NFJ6_9PROT, SEQ ID NO: 166 (Acetobacter indonesiensis, UniProt A0A6N3T5V0); experiment: OAADC kinetics of A0A0D6NFJ6_9PROT on oxaloacetate; type: biochemical; settings: pH 7.2, 21° C.
T2 sequence (A0A6N3T5V0 with tags, fused parts or gaps): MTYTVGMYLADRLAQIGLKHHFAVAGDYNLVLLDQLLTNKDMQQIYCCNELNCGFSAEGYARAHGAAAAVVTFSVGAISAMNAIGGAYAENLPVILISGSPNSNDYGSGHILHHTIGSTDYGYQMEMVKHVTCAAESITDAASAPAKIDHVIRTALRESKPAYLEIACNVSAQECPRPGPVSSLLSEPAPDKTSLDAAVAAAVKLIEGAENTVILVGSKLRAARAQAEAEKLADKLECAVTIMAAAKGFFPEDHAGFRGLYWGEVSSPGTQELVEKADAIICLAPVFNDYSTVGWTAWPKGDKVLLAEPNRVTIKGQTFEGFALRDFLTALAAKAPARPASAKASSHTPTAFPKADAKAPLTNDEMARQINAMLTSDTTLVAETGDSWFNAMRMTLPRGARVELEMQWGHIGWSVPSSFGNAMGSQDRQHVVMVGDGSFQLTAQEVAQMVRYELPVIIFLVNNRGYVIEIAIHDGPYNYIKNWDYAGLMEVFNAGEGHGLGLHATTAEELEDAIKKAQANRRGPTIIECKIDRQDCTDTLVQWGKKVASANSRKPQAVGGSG
Method: All substrates were dissolved in MilliQ H2O and the pH was adjusted to 7.2 as necessary. Activity for oxaloacetate, pyruvate, and 2-ketoisovalerate was measured at a 1 mM substrate concentration. The assay was performed in a 96-well half-area plate. Each reaction contained reaction buffer (100 mM HEPES, 100 mM NaCl, 10% glycerol, pH 7.2), ADH (Sigma-Aldrich, A7011, 100 U/mL for pyruvate, 600 U/mL for oxaloacetate, and 600 U/mL for 2-ketoisovalerate), and a final concentration of 0.5 mM NADPH, 0.1 mM TPP, and 1 mM MgSO4. A range of substrate concentrations (0.1 mM-5 mM) were uSEQ to perform steady-state kinetics measurement over a period of one hour. Absorbance readings were taken at one minute intervals at 340 nm at 21° C. for 60 minutes using the Synergy H1 spectrophotometer (Biotek). Kinetic parameters (ka and Ks1) were determined by fitting initial velocity versus substrate concentration data to the Michaelis-Menten equation.
A second round of genome mining was conducted as described in Example 1, except using the 4COK sequence as the input. Genes encoding candidate OAADCs were synthesized and expressed in E. coli for further characterization. OAADC activity was assayed as described in Example 1.

Km [1]: > 20 mM
Km [2]: > 20 mM
SMILES: O=C(O)CC(=O)C(=O)O [Oxaloacetate]
